The values below are quoted from earlier work in US20050009897A1, “Method of treatment” (priority 2001, published 2005).

The conditions of data set [1]: 45 hypertensive diabetic patients, cited from earlier work.
For data set [2] the following is noted: hypertensive patients; cited from earlier work.
The conditions of data set [3]: nondiabetic hypertensive individuals; cited from earlier work.
For data set [4] the following is noted: compared with other β-blockers, angiotensin converting enzyme inhibitors or calcium channel blockers; cited from earlier work.

Read-outs that look alike come from different tables or passages of the source.

As for `CC(C)NCC(O)COc1ccc(CC(N)=O)cc1` (stereo not shown) [atenolol], in data set [1], the fasting glucose entry is “increased”, the fasting insulin entry is reported as “increased”, the glucose disposal result is “decreased” and the insulin sensitivity result is given as “decreased”. In addition, the lipid peroxidation entry in data set [1] was “no effect”. Besides, the antihypertensive effect result in data set [1] (relative to carvedilol) is “equivalent”. The glycemic control result in data set [2] is recorded as “significantly reduce”.
Turning to `CC(C)NCC(O)COc1cccc2ccccc12` (stereo not shown) [propranolol], the glycemic control entry in data set [2] is reported as “significantly reduce”.
Take `COc1ccccc1OCCNCC(O)COc1cccc2[nH]c3ccccc3c12` (stereo not shown) [carvedilol]: the insulin sensitivity result in data set [3] is given as “increases”. Further, in data set [1], the HbA1c entry is listed as “decreased”, the fasting glucose entry is recorded as “decreased”, the fasting insulin result is listed as “decreased” and the glucose disposal entry is listed as “increased”. Also, in data set [1], the insulin sensitivity result is on record as “increased” and the lipid peroxidation entry is “decreased”. Also, the lowering blood pressure result in data set [4] is “as effective as other β-blockers, angiotensin converting enzyme inhibitors or calcium channel blockers”.
